Drawing on patent publication US20240294551A1 (AMGEN INC., priority 2022, published 2024), this text covers IC50 for eleven molecules.

Assay [1] deals with Phosphorylation of ERK1/2 in AsPC-1 cells. Briefly: Phospho-ERK1/2 MSD Assay. The following applies: Homo sapiens, ASPC1, 2 h, read-out: 2 h p-ERK (AsPC-1 cells), IC50. The assay is classed as cell-based, human. The gist of the method:
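Read-out: MSD electrochemiluminescent detection of phosphorylated ERK1/2 in whole-cell lysates, fitted to a 4-parameter logistic curve for IC50. Prior to lysis, AsPC-1 cells (25,000 per well) received a 2 h compound dose-response at 37 °C.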

For the next assay, the system named is AsPC-1 cells. The assay is described as follows: AsPC-1 CTG Assay (CellTiter-Glo cell viability). The assay is classed as cell-based, human. The following applies: Homo sapiens, AsPC-1, 72 h, first value of the cell, read-out: G12D/C/V Cell Proliferation CTG (72 h) AsPC-1. The gist of the method:
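Human pancreatic AsPC-1 or colon SW620 cells in RPMI 1640 with 10% FBS, seeded overnight, then exposed to serially diluted compound for 72 h at 37 °C. CellTiter-Glo luminescence normalized to DMSO control; IC50 from a 4-parameter logistic model.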
A general note: Cellular ATP, detected with luciferase, serves as a proxy for viable cell number.

Assay [2] has as its target GDP-bound KRAS protein (aa 1-169), containing both G12D and C118A amino acid substitutions (Homo sapiens (Human), UniProt P01116, C118A/G12D). The assay is described as follows: KRAS G12D Coupled Nucleotide Exchange Assay. The settings on record: read-out: KRAS G12D Coupled Exchange IC50. The assay is classed as biochemical.
Another assay has as its system MIA PaCa-2 cells. The assay is described as follows: MIA PaCa-2 CTG Assay (CellTiter-Glo cell viability). The assay is classed as cell-based, human. The settings on record: Homo sapiens; Mia PaCa-2, 72 h; second value of the cell; read-out: G12D/C/V Cell Proliferation CTG (72 h) Mia PaCa-2. The protocol: MIA PaCa-2 CTG Assay Protocol
MIA PaCa-2 (human pancreatic carcinoma; ATCC CRL-1420) cells were cultured in RPMI 1640 medium containing 10% fetal bovine serum and 1× penicillin/streptomycin/L-glutamine. Cells were seeded in 384-well plates at a density of 1.67E+04 cells/mL and incubated at 37° C., 5% CO2, overnight. Serially-diluted compound or DMSO was added to the cells, and plates were incubated at 37° C., 5% CO2 for 72 h. Cell viability was measured using a CellTiter-Glo® Luminescent Cell Viability Assay kit (Promega) according to the manufacturer's protocol. The luminescence signal of treated samples was normalized to DMSO control, and data were analyzed using a 4-parameter logistic model to calculate IC50 values.

Assay [3] concerns the target His-tagged KRAS G12D protein (Homo sapiens (Human), UniProt P01116, G12D). Briefly: KRAS G12D TR-FRET Assay. Type of assay: binding. The following applies: read-out: KRAS G12D Binding IC50. The gist of the method: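 His-tagged KRAS G12D (diluted to 20 nM in pH 7.4 HEPES buffer with 10 mM MgCl2 and 10 μM GDP) was preincubated with titrated compound for 30 min at room temperature. Biotinylated KRPep-2d peptide (diluted to 20 nM) was then added for 1 h, and displacement was monitored by TR-FRET.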

Structures are written as SMILES. Where a name gives a salt, the structure may show the parent alone. Read-outs that look alike come from different tables or passages of the source.

Sequence of His-tagged KRAS G12D protein (P01116 other isoform, or with tags, fused parts or gaps G12D): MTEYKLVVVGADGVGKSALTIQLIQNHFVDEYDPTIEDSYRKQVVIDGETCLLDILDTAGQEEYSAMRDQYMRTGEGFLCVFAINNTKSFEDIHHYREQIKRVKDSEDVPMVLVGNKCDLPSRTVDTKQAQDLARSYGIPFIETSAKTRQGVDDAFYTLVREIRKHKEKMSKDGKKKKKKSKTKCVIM
Sequence of GDP-bound KRAS protein (aa 1-169), containing both G12D and C118A amino acid substitutions (P01116 other isoform, or with tags, fused parts or gaps G12D/C118A): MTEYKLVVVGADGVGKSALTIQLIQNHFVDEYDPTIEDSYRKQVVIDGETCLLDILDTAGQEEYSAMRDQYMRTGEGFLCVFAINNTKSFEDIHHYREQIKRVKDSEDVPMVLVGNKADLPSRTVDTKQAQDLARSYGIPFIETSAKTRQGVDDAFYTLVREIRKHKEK

Turning to `O=C1CC/C=C\c2c(Cl)cc3[nH]ncc3c2-c2ncc3c(nc(OC[C@@]45CCCN4C[C@H](F)C5)nc3c2F)N2CCCC(C2)O1` (stereo in doubt) [Example 35, (11Z,17S)-9-Chloro-30-fluoro-24-(((2R,7aS)-2-fluorotetrahydro-1H-pyrrolo[1,2-a]pyrrol-7a(5H)-yl)methoxy)-16-oxa-5,6,21,23,25,29-hexaazahexacyclo[24.3.1.1˜17,21˜.0˜2,10˜.0˜3,7˜.0˜22,27˜]hentriaconta-1(30),2,4,7,9,11,22,24,26,28-decaen-15-one bis(2,2,2-trifluoroacetate)], the IC50 in assay [1] was 19 nM; with AsPC-1 cells (ASPC1), 277 nM; in assay [2], 1 nM; in the assay with MIA PaCa-2 cells it was 90 nM; in assay [3] it was 1 nM.
Turning to `C[C@@]12CCCN(C1)c1nc(OC[C@@]34CCCN3C[C@H](F)C4)nc3c(F)c(ncc13)-c1cc(O)cc3cccc(c13)CCCC(=O)N2` [Example 3, (15R)-31-Fluoro-8-(((2R,7aS)-2-fluorotetrahydro-1H-pyrrolo[1,2-a]pyrrol-7a(5H)-yl)methoxy)-27-hydroxy-15-methyl-3,7,9,11,16-pentaazahexacyclo[19.7.1.1˜2,6˜.1˜11,15˜.0˜5,10˜.0˜25,29˜]hentriaconta-1(28),2(31),3,5,7,9,21,23,25(29),26-decaen-17-one bis(2,2,2-trifluoroacetate)], the IC50 worked out at 23 nM in assay [1]; 285 nM with AsPC-1 cells (ASPC1, 72 h); 0.1 nM in assay [2]; 75 nM in the assay on MIA PaCa-2 cells; 1 nM in assay [3].
The like results for `CN1C[C@H](F)C[C@H]1COc1nc2c3cnc(c(F)c3n1)-c1cc(O)cc3ccc(F)c(c13)CCCC(=O)N[C@]1(C)CCCN2C1` [Example 5, (15R)-22,31-Difluoro-8-(((2S,4R)-4-fluoro-1-methyl-2-pyrrolidinyl)methoxy)-27-hydroxy-15-methyl-3,7,9,11,16-pentaazahexacyclo[19.7.1.1˜2,6˜.1˜11,15˜.0˜5,10˜.0˜25,29˜]hentriaconta-1(28),2(31),3,5,7,9,21,23,25(29),26-decaen-17-one bis(2,2,2-trifluoroacetate)] were, in that order, 23 nM, 471 nM, 1 nM, 62 nM and 1 nM.
Take `C[C@@]12CCN(C1)c1nc(OC[C@@]34CCCN3C[C@H](F)C4)nc3c(F)c(ncc13)-c1cc(O)cc3ccc(F)c(c13)CCCC(=O)N2` [Example 10, (14R)-21,30-Difluoro-8-(((2R,7aS)-2-fluorotetrahydro-1H-pyrrolo[1,2-a]pyrrol-7a(5H)-yl)methoxy)-26-hydroxy-14-methyl-3,7,9,11,15-pentaazahexacyclo[18.7.1.1˜2,6˜.1˜11,14˜.0˜5,10˜.0˜24,28˜]triaconta-1(27),2(30),3,5,7,9,20,22,24(28),25-decaen-16-one 2,2,2-trifluoroacetate salt]: the IC50 came out at 84 nM in assay [1]; 574 nM with AsPC-1 cells (ASPC1, 72 h); 2 nM in assay [2]; 157 nM in the assay on MIA PaCa-2 cells; 4 nM in assay [3].
`CN(C)CC1(COc2nc3c4cnc(c(F)c4n2)-c2cc(O)cc4ccc(F)c(c24)CCCC(=O)N[C@]2(C)CCCN3C2)CC1` [Example 22, (15R)-8-((1-((Dimethylamino)methyl)cyclopropyl)methoxy)-22,31-difluoro-27-hydroxy-15-methyl-3,7,9,11,16-pentaazahexacyclo[19.7.1.1˜2,6˜.1˜11,15˜.0˜5,10˜.0˜25,29˜]hentriaconta-1(28),2(31),3,5,7,9,21,23,25(29),26-decaen-17-one bis(2,2,2-trifluoroacetate)]: the IC50 in assay [1] worked out at 5 nM; in the assay on AsPC-1 cells (ASPC1, 72 h), 108 nM; in assay [2], 1 nM; in the assay with MIA PaCa-2 cells, 10 nM; in assay [3], 3 nM.
For `C[C@@]12CCCN(C1)c1nc(OC[C@@]34CCCN3C[C@H](F)C4)nc3c(F)c(ncc13)-c1cc(O)cc3ccc(F)c(c13)CCCCC(=O)N2` [Example 47, (15R)-23,32-Difluoro-8-(((2R,7aS)-2-fluorotetrahydro-1H-pyrrolo[1,2-a]pyrrol-7a(5H)-yl)methoxy)-28-hydroxy-15-methyl-3,7,9,11,16-pentaazahexacyclo[20.7.1.1˜2,6˜.1˜11,15˜.0˜5,10˜.0˜26,30˜]dotriaconta-1(30),2(32),3,5,7,9,22,24,26,28-decaen-17-one], the IC50 in assay [1] amounted to 36 nM; in the assay with AsPC-1 cells (ASPC1, 72 h) it was 350 nM; in assay [2], 2 nM; in the assay with MIA PaCa-2 cells, 200 nM; in assay [3], 4 nM.
With `O=C1CCCc2c(F)ccc3cccc(c23)-c2ncc3c(nc(OC[C@@]45CCCN4C[C@H](F)C5)nc3c2F)N2CC[C@H]3CCN1[C@H]3C2` [Example 72, (27S,31R)-18,33-difluoro-4-(((2R,7aS)-2-fluorotetrahydro-1H-pyrrolo[1,2-a]pyrrol-7a(5H)-yl)methoxy)-1,3,5,9,24-pentaazaheptacyclo[22.5.2.1˜6,10˜.1˜11,15˜.0˜2,7˜.0˜19,32˜.0˜27,31˜]tritriaconta-2,4,6,8,10(33),11,13,15(32),16,18-decaen-23-one], the IC50 was 16 nM in assay [1]; 230 nM with AsPC-1 cells (ASPC1, 72 h); 1 nM in assay [2]; 200 nM in the assay with MIA PaCa-2 cells; 3 nM in assay [3].
As for `O=C1CCCCc2c(Cl)cc3[nH]ncc3c2-c2ncc3c(nc(OC[C@@]45CCCN4C[C@H](F)C5)nc3c2F)N2CCCC[C@H](C2)O1` [Example 82, (26R)-18-chloro-32-fluoro-4-(((2R,7aS)-2-fluorotetrahydro-1H-pyrrolo[1,2-a]pyrrol-7a(5H)-yl)methoxy)-25-oxa-1,3,5,9,14,15-hexaazahexacyclo[24.4.1.1~6,10~.0~2,7~.0~11,19~.0~12,16~]dotriaconta-2,4,6,8,10(32),11,13,16,18-nonaen-24-one], the IC50 amounted to 2 nM in assay [1]; 40 nM in the assay on AsPC-1 cells (ASPC1, 72 h); 1 nM in assay [2]; 10 nM in the assay with MIA PaCa-2 cells; 2 nM in assay [3].
Regarding `Cc1cc2[nH]ncc2c2c1CCCCC(=O)O[C@@H]1COCCN(C1)c1nc(OC[C@@]34CCCN3C[C@H](F)C4)nc3c(F)c-2ncc13` [Example 83, (26S)-32-fluoro-4-(((2R,7aS)-2-fluorotetrahydro-1H-pyrrolo[1,2-a]pyrrol-7a(5H)-yl)methoxy)-18-methyl-25,28-dioxa-1,3,5,9,14,15-hexaazahexacyclo[24.4.1.1~6,10~.0~2,7~.0~11,19~.0~12,16~]dotriaconta-2,4,6,8,10(32),11,13,16,18-nonaen-24-one], the IC50 in assay [1] came out at 15 nM; with AsPC-1 cells (ASPC1, 72 h) it was 160 nM; in assay [2], 3 nM; in the assay on MIA PaCa-2 cells, 40 nM; in assay [3], 4 nM.
The matching figures for `O=C1CCCCc2c(Cl)cc3[nH]ncc3c2-c2ncc3c(nc(OC[C@@]45CCCN4C[C@H](F)C5)nc3c2F)N2CCOC[C@H](C2)O1` [Example 84, (26S)-18-chloro-32-fluoro-4-(((2R,7aS)-2-fluorotetrahydro-1H-pyrrolo[1,2-a]pyrrol-7a(5H)-yl)methoxy)-25,28-dioxa-1,3,5,9,14,15-hexaazahexacyclo[24.4.1.1~6,10~.0~2,7~.0~11,19~.0~12,16~]dotriaconta-2,4,6,8,10(32),11,13,16,18-nonaen-24-one]: 4 nM, 50 nM, 1 nM, 20 nM and 2 nM.
`CN1C[C@H](F)C[C@H]1COc1nc2c3cnc(c(F)c3n1)-c1c(c(Cl)cc3[nH]ncc13)CCCCC(=O)O[C@@H]1CCCCN2C1` [Example 85, (26R)-18-chloro-32-fluoro-4-(((2S,4R)-4-fluoro-1-methyl-2-pyrrolidinyl)methoxy)-25-oxa-1,3,5,9,14,15-hexaazahexacyclo[24.4.1.1~6,10~.0~2,7~.0~11,19~.0~12,16~]dotriaconta-2,4,6,8,10(32),11,13,16,18-nonaen-24-one]: the IC50 turned out to be 58 nM in assay [1]; 480 nM with AsPC-1 cells (ASPC1, 72 h); 4 nM in assay [2]; 400 nM in the assay with MIA PaCa-2 cells; 5 nM in assay [3].
